Measured values taken from PMC3693772, “Protein expression, biochemical pharmacology of signal transduction, and relation to intraocular pressure modulation by bradykinin B2 receptors in ciliary muscle” (Molecular Vision, 2013).
Square brackets hold non-standard residues; d marks the D form. Peptide text beside a SMILES is read from it. * marks the point of attachment. X1 = COc1ccc(C[C@@H](CN[C@@H](CCCNC(=N)N)C(=O)O)N*)cc1; Hyp = O=C(O)[C@@H]1C[C@@H](O)CN1; 2Thi = N[C@@H](Cc1cccs1)C(=O)O

Tests used:
primary h-CM cells = type: cell-based, human; conditions: for Effect on background level of total PGs, h-CM cells: alone, up to 100 nM, single experiment; for Effect on total PGs induced by 1 µM BK, h-CM cells: pretreatment, challenge with 1 µM BK
Procedure: (§1) Measurement of prostaglandins in human ciliary muscle and Chinese hamster ovary cells expressing B2 receptors
(§2) This involved stimulating h-CM cells and CHO-B2 cells with various concentrations of test peptides and measuring the release of various PGs in the extracellular medium. The concentration-dependent effects of these peptides on total PGs, and specifically PGE2, PGF2α, and PGD2 release, were studied. Cells were grown as a monolayer in a 24-well plate (precoated with fibronectin) to confluence and subsequently serum-starved overnight before the experiment. On the day of the experiment, just before the drug was added, the wells were aspirated completely, and 990 µl basal medium and 10 µl 100× series of concentrations of the different peptide agonists were added to achieve the desired final concentrations of each compound (e.g., 0.1 nM to 10 µM). […] At the end of the incubation period, the cellular supernatants were collected and stored at −80 °C or used immediately to determine the PG content. Cell supernatants were tested for total PG levels and sub-species of PGs (PGE2, PGF2α, and PGD2) using specific competitive enzyme immunoassays (Cayman Chemical Co., Ann Arbor, MI) as directed in the manufacturer’s recommended protocols using the supplied standards and reagents. The limits of detection for various PGs were as follows: total PGs=29 pg/ml; PGE2=15 pg/ml; PGF2α=9 pg/ml; PGD2=200 pg/ml.

[1] = tested on: CHO-B2 cells (human cloned B2 receptor); type: cell-based, Chinese hamster ovary cells; conditions: compound on its own
Procedure: as §1, §2

COX-1 and COX-2 = conditions: ref [43]; cited from earlier work
human cloned B2 receptor = biological target: T1, human cloned B2 receptor (Homo sapiens, UniProt P30411); assay: [^3H]-BK binding to human cloned B2 receptor (CHO-B2 membranes); conditions: 0.2 nM [^3H]-BK, CHO-B2 homogenates 2.5 µg protein, 60 min, 23 °C, 50 mM Tris/HCl pH 7.4; mean±SEM, up to 19 experiments; read-out: Ligand binding inhibition constant at human cloned B2 receptors (Ki)
T1 construct: purchased Euroscreen, Gosselies, Belgium; host or cells: CHO cells (recombinant, CHO-B2), used as cell homogenates/membranes
T1 sequence (P30411 1-391): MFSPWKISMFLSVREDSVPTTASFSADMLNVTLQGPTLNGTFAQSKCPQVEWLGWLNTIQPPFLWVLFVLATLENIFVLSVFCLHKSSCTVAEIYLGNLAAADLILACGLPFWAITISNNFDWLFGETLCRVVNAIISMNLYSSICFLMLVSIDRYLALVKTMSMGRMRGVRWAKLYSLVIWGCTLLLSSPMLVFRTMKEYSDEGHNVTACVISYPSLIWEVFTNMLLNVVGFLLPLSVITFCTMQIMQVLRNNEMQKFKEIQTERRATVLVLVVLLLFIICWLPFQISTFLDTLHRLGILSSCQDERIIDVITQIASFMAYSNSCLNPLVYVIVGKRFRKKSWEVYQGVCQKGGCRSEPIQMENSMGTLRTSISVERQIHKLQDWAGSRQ
Procedure: However, in view of the difficulty of obtaining sufficient h-CM cells for these initial studies, we decided to use cell membranes of Chinese hamster ovary cells containing the human cloned B2 receptor (CHO-B2; Euroscreen, Gosselies, Belgium). […] Following this incubation, the samples were filtered rapidly under vacuum through glass fiber filters (PerkinElmer) presoaked with 0.3% polyethyleneimine and rinsed several times with an ice-cold 50 mM Tris-HCl buffer using a 96-sample cell harvester (TomTec; Gaithersburg, MD). The filters were air-dried and the radioactivity counted in a beta-scintillation counter (TopCount, PerkinElmer). Data were analyzed using a sigmoidal-fit, iterative algorithm of a computer program designed to automatically fit the new data (Activity base; IDBS, Surrey, UK).

SMILES	Effect on BK concentration-response of PG release, h-CM cells (primary h-CM cells; 1 µM final, preincubated 5 min, three experiments)	Effect on background level of total PGs, h-CM cells (primary h-CM cells)	Effect on total PGs induced by 1 µM BK, h-CM cells (primary h-CM cells; three experiments)	PG production/release by compound alone, CHO-B2 cells [1]	COX-1/COX-2 inhibition selectivity (COX-1 and COX-2)	Ki (human cloned B2 receptor) [nM]
Nc1c(CC(=O)O)cccc1C(=O)c1ccc(Br)cc1 [bromfenac]	completely abolished PG synthesis and release	inhibited the background level of total PGs	concentration-dependent reduction in total PGs synthesized and secreted	failed to influence PG production	COX-2-selective	–
CC(C(=O)O)c1ccc(-c2ccccc2)c(F)c1 (stereo not drawn) [flurbiprofen]	–	inhibited the background level of total PGs	concentration-dependent reduction in total PGs synthesized and secreted, with flurbiprofen much more potent than bromfenac	failed to influence PG production	equally blocks COX-1 and COX-2	–
COc1ccc(C[C@@H](CN[C@@H](CCCNC(=N)N)C(=O)O)NC(=O)[C@@H]2CCCN2C(=O)[C@H](CO)NC(=O)[C@H](Cc2cccs2)NC(=O)CNC(=O)[C@@H]2C[C@@H](O)CN2C(=O)[C@@H]2CCCN2C(=O)[C@@H](N)CCCNC(=N)N)cc1 [RMP-7] (H-RP[Hyp]G[2Thi]SP-X1)	–	–	–	–	–	11.3 ± 1.1
NCCCC[C@H](N)C(=O)N[C@@H](CCCN=C(N)N)C(=O)N1CCC[C@H]1C(=O)N1CCC[C@H]1C(=O)NCC(=O)N[C@@H](Cc1ccccc1)C(=O)N[C@@H](CO)C(=O)N1CCC[C@H]1C(=O)N[C@@H](Cc1ccccc1)C(=O)N[C@@H](CCCN=C(N)N)C(=O)O [Lys-BK]	–	–	–	–	–	1.8 ± 0.7
CSCC[C@H](N)C(=O)N[C@@H](CCCCN)C(=O)N[C@@H](CCCNC(=N)N)C(=O)N1CCC[C@H]1C(=O)N1CCC[C@H]1C(=O)NCC(=O)N[C@@H](Cc1ccccc1)C(=O)N[C@@H](CO)C(=O)N1CCC[C@H]1C(=O)N[C@@H](Cc1ccccc1)C(=O)N[C@@H](CCCNC(=N)N)C(=O)O [Met-Lys-BK]	–	–	–	–	–	73 ± 24.7
